Measured values published in the supplement of paper PMC10307832.

Columns and labels:
Experiment in all cases: relative viability (nuclei count vs DMSO), 5 days (fraction); higher = more cells survive
XMD14-99 = compound: CN1CCN(CC1)C2=CC(=C(C=C2)NC3=NC(=C(S3)C(=O)C4=C(C=CC=C4Cl)Cl)N)OC [XMD14-99]
Procedure, shortened: (§1)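 Lung cancer cell lines received five library-drug doses (not always all listed) spaced by √10, pinned on vehicle-anchored 1536-well plates after an overnight stay at 37 °C. Five days later, with no medium change, nuclei were Hoechst-stained, imaged at 4× and counted with MetaXpress. Viability is treated-well nuclei relative to vehicle-well nuclei, as a median across plates. Passing plates had control CV below 25% and at least one doubling.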

AZD1208 = compound: N[C@@H]1CCCN(c2c(/C=C3\SC(=O)NC3=O)cccc2-c2ccccc2)C1 [AZD1208]
Procedure, shortened: as §1

XMD14-99 + Navitoclax = compound: CN1CCN(CC1)C2=CC(=C(C=C2)NC3=NC(=C(S3)C(=O)C4=C(C=CC=C4Cl)Cl)N)OC [XMD14-99] + CC1(C)CCC(c2ccc(Cl)cc2)=C(CN2CCN(c3ccc(C(=O)NS(=O)(=O)c4ccc(N[C@H](CCN5CCOCC5)CSc5ccccc5)c(S(=O)(=O)C(F)(F)F)c4)cc3)CC2)C1 [Navitoclax] (partner 0.5 µM)
Procedure, shortened: (§2)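 A single step with final 0.05% Triton X-100, 1% formaldehyde and 1 ug/ml Hoechst fixed the cells and stained nuclei 5 days after treatment. Lung cancer cell lines in 1536-well plates had been treated by pin tool the day after seeding with one drug alone or a fixed anchor-drug dose plus five library-drug doses (not always all listed) in √10 steps, and nuclei were counted on 4× images. Relative viability is the ratio of nuclei in treated wells to nuclei in vehicle wells, taken as the median of duplicate plates.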

XMD14-99 + Foretinib = compound: CN1CCN(CC1)C2=CC(=C(C=C2)NC3=NC(=C(S3)C(=O)C4=C(C=CC=C4Cl)Cl)N)OC [XMD14-99] + COc1cc2c(Oc3ccc(NC(=O)C4(C(=O)Nc5ccc(F)cc5)CC4)cc3F)ccnc2cc1OCCCN1CCOCC1 [Foretinib] (partner 0.25 µM)
Procedure, shortened: as §2

Row | Cell Line | relative viability (XMD14-99; 0.08 µM) | relative viability (XMD14-99; 0.8 µM) | relative viability (XMD14-99; 2.53 µM) | relative viability (XMD14-99; 8 µM) | relative viability (AZD1208; 0.08 µM) | relative viability (AZD1208; 0.253 µM) | relative viability (AZD1208; 0.8 µM) | relative viability (AZD1208; 2.53 µM) | relative viability (AZD1208; 8 µM) | relative viability (XMD14-99 + Navitoclax; first compound 0.08 µM) | relative viability (XMD14-99 + Navitoclax; first compound 0.8 µM) | relative viability (XMD14-99 + Navitoclax; first compound 2.53 µM) | relative viability (XMD14-99 + Navitoclax; first compound 8 µM) | relative viability (XMD14-99 + Foretinib; first compound 0.08 µM) | relative viability (XMD14-99 + Foretinib; first compound 0.8 µM) | relative viability (XMD14-99 + Foretinib; first compound 2.53 µM) | relative viability (XMD14-99 + Foretinib; first compound 8 µM)
1 | LC-2-ad | 0.973 | 0.963 | 0.929 | 0.775 | 1.02 | 1.03 | 0.927 | 0.887 | 0.899 | 0.533 | 0.386 | 0.273 | 0.295 | 1 | 1.01 | 0.849 | 0.836
2 | SW 1573 | 0.964 | 0.939 | 1 | 0.834 | 0.822 | 0.899 | 0.799 | 0.807 | 0.696 | 0.961 | 1.15 | 1.05 | 0.765 | 0.814 | 0.992 | 0.861 | 0.824
3 | ChaGo-K-1 | 0.97 | 1.03 | 0.961 | 0.939 | 1.13 | 1.03 | 0.924 | 1.04 | 0.893 | 1.05 | 1.06 | 0.908 | 0.745 | 0.82 | 0.939 | 0.88 | 0.913
4 | COR-L 105 | 0.852 | 1.14 | 0.706 | 0.718 | 0.837 | 0.909 | 0.929 | 0.712 | 0.821 | 0.776 | 0.724 | 0.842 | 0.767 | 1.06 | 1.25 | 0.991 | 0.734
5 | NCI-H1975 | 0.992 | 0.994 | 0.917 | 0.788 | 1.06 | 1.08 | 0.909 | 1.04 | 0.878 | 1.05 | 1.07 | 1.14 | 1.08 | 1.01 | 0.92 | 0.924 | 0.817
6 | Calu-6 | 0.937 | 0.932 | 0.936 | 0.785 | 1 | 1.1 | 0.968 | 1.04 | 0.989 | 0.772 | 0.802 | 0.726 | 0.473 | 0.897 | 0.905 | 0.843 | 0.593
7 | NCI-H2009 | 0.987 | 1.03 | 0.887 | 0.804 | 1.03 | 1.07 | 1.01 | 0.975 | 1 | 1.15 | 1.1 | 1.03 | 0.999 | 1.21 | 1.25 | 1.14 | 1.12
8 | SK-LU-1 | 0.987 | 1.04 | 0.948 | 0.7 | 0.988 | 1.15 | 0.932 | 1.05 | 0.922 | 0.796 | 1.02 | 0.886 | 0.405 | 0.818 | 0.803 | 0.758 | 0.477
9 | NCI-H2347 | 1.04 | 1 | 0.966 | 0.637 | 1.02 | 1.09 | 1 | 0.951 | 1.08 | 0.736 | 0.825 | 0.699 | 0.488 | 0.913 | 0.92 | 1 | 0.369
10 | HCC-366 | 0.988 | 0.996 | 1.01 | 0.894 | 1 | 0.996 | 1.03 | 1.01 | 0.993 | 1.01 | 1.03 | 0.986 | 0.863 | 0.912 | 0.943 | 0.96 | 0.918
11 | EMC-BAC-2 | 1.01 | 1.03 | 0.889 | 0.645 | 1.23 | 0.95 | 0.917 | 0.949 | 0.754 | 1.08 | 1.14 | 1.06 | 0.901 | 1.05 | 0.978 | 0.854 | 0.859
12 | NCI-H3122 | 1 | 0.995 | 0.892 | 0.694 | 0.994 | 0.996 | 0.932 | 1.04 | 0.981 | 0.989 | 0.945 | 0.902 | 0.724 | 0.948 | 0.964 | 0.847 | 0.756
13 | NCI-H1944 | 0.906 | 0.917 | 0.817 | 0.809 | 0.963 | 0.898 | 0.861 | 0.822 | 0.639 | 1.1 | 1.04 | 1.01 | 0.919 | 0.886 | 0.841 | 0.7 | 0.631
14 | EPLC-272H | 1.09 | 0.998 | 0.942 | 0.787 | 0.983 | 0.974 | 0.861 | 0.864 | 0.742 | 1.14 | 1.1 | 1.29 | 1.11 | 0.748 | 0.764 | 0.684 | 0.444
15 | EBC-1 | 0.962 | 0.924 | 0.842 | 0.637 | 1.02 | 1.12 | 0.93 | 0.967 | 0.957 | 0.37 | 0.384 | 0.415 | 0.219 | 0.113 | 0.11 | 0.112 | 0.0979
16 | NCI-H1915 | 0.991 | 0.958 | 0.91 | 0.796 | 0.995 | 1.06 | 0.967 | 0.875 | 0.979 | 0.833 | 0.761 | 0.742 | 0.737 | 1.06 | 1.02 | 0.961 | 0.859
17 | NCI-H647 | 0.981 | 0.99 | 0.92 | 0.819 | 1.02 | 1.04 | 0.891 | 0.892 | 0.788 | 1.08 | 1.19 | 1.16 | 0.974 | 1.3 | 1.15 | 1.22 | 1.01
18 | NCI-H441 | 0.912 | 0.968 | 0.847 | 0.645 | 0.937 | 1.14 | 0.896 | 0.989 | 0.736 | 0.575 | 0.556 | 0.724 | 0.569 | 0.766 | 0.993 | 0.849 | 0.751
19 | NCI-H1299 | 0.996 | 0.98 | 0.941 | 0.859 | 1.01 | 1.06 | 1.03 | 1.06 | 1.06 | 1.08 | 1.03 | 0.994 | 0.825 | 1.11 | 1.02 | 1.1 | 0.949
